In US20170066797A1, “WITHAFERIN A ANALOGS AND USES THEREOF” (Whitehead Institute for Biomedical Research, priority 2008, published 2017):

Columns and labels:
[1] = test system: Ewing's sarcoma cells (CHP-100); details: 72 hours, MTT, FIG. 5
Excerpt: Relative viable cell number was quantified by MTT assay. Results are presented as a percentage compared to wells exposed to DMSO alone. […] Points: mean of triplicate determinations; Error bars: s.d.

Annexin 2 = target: T1, Annexin 2 (Homo sapiens, UniProt P07355); assay: Pull-down with biotinylated withaferin A on NeutrAvidin beads with competition; assay type: binding; details: competition with WA 40 μM, 36 kDa band, FIG. 11
T1 construct: incubated with pre-cleared whole cell extract that had been previously supplemented with WA (40 μM) or an equal volume of DMSO; endogenous in cells
Protocol: FIG. 11. Stable and specific binding of Annexin 2 by withaferin A. Biotinylated withaferin A (WA) was captured on NeutrAvidin (NA)-coated beads and incubated with pre-cleared whole cell extract that had been previously supplemented with WA (40 μM) or an equal volume of DMSO. After low stringency washes, proteins bound to beads were eluted, size fractioned by SDS-PAGE, stained with Sypro Ruby, and visualized by UV illumination. The arrowhead indicates the position of a 36 kDa band effectively competed away by WA. Pre-clear lane: Proteins in whole cell extract that bound non-specifically to NA beads alone (no immobilized WA present) during pre-clearing incubation.

[2] = test system: primary astrocytes / primary neurons co-culture; assay: Glutathione depletion astrocyte-neuron co-culture model (HCA, MAP-2 readout); assay type: cell-based, rat; details: astrocytes pre-treated 24 h, then 5 mM homocysteic acid 48 h, FIG. 14
Protocol: FIGS. 14A and 14B. (A) Withaferin A (WA) mediates astrocyte-dependent neuronal protection. Primary astrocytes cultured from the cerebral cortices of postnatal rat pups, were treated with WA for 24 h, and were washed with serum-containing media to completely remove WA from the culture media. […] 48 h later neuronal viability was assessed by quantifying the neuronal marker MAP-2. (B) WA-mediated neuroprotection from oxidative stress.
WA was tested in a second model for neuroprotection that utilizes primary astrocytes cultured from the cerebral cortices of postnatal day 1-3 rat pups. In the CNS, astrocytes play a pivotal role in protecting neurons from oxidative stress, a hallmark of nearly all neurodegenerative diseases and disorders. […]
In this assay, which is summarized in FIG. 13, primary astrocytes were isolated from the cerebral cortices of postnatal day 1-3 rat pups, allowed to grow to confluency for ˜2 weeks, and then treated with test compound for 24 h. […] Quantification of the neuron-specific protein microtubule-associated protein-2 (MAP-2) is used to monitor neuronal specific death in this astrocyte-neuron co-culture model as described previously (Carrier et al., J. Neuroscience Methods, 154: 239-244.2006). […] HRP activity is then measured using a reaction buffer containing 150 uM amplex red (Molecular Probes) and 800 uM hydrogen peroxide (Sigma). […]

[3] = test system: rat spinal cord motor neurons; assay: Neurotrophic factor (BDNF) deprivation-induced apoptosis of spinal cord motor neurons; assay type: cell-based; details: for reduction in cell death of motor neurons plated in the absence of BDNF: 24 hours, calcein-A
Protocol: FIGS. 12A-12D. Neuronal survival and increase in neurite length as assessed by calcein-A staining which is taken up by viable neurons. (A) In the absence of BDNF (−BDNF) there is approximately 40% reduction in viable motor neurons compared to wells with BDNF present (+BDNF). Addition of withaferin A (WA) to the motor neuron cultures plated in the absence of BDNF results in a 50% reduction in cell death at 200 nM (0.2 μM) concentration of WA and a 75% reduction in cell death at 400 nM (0.4 μM) as assessed after 24 hours. […] (B) Graph showing percent protection. (C) Motor neuron viability assay of WA. (D) WA increases neurite length (normalized to control) measured at the end of the experiment.
Neurotrophic factor deprivation-induced apoptosis of rat spinal cord motor neurons was used as a model system to evaluate neuroprotective activity of withaferin A. Primary spinal cord motor neurons were purified from E15 rats. These cells were dissociated from the ventral spinal cord, enriched by density gradient centrifugation, and purified by magnetic bead cell separation using an antibody against p75NTR which is expressed on the cell surface of motor neurons at this developmental age. The resulting cultures are ˜96% motor neurons as assessed by HB9 or islet-1 immunoreactivity and are virtually devoid of astrocytes or microglia. For viability experiments, the cells were plated at a low density (500 cells/well of a 96-well plate). In these cultures, motor neuron survival is highly dependent on trophic factors added to the culture media (in the form of BDNF, GDNF, or cardiotrophin-1), as ˜50% of the attached cells will undergo apoptosis when deprived of trophic factors (Oppenheim, R. W., et al., Nature, 360: 755-757; Henderson, C. E., et al., Science, 266: 1062-1064, 1994). BDNF was used as the trophic factor.
Neuronal survival was assessed by staining with calcein-A, a fluorescent dye that is taken up by viable neurons. […]
In some experiments, a fluorescence image of the entire well within a plate was captured using a flash cytometer (Trophos). […]

T1 sequence (P07355 whole entry, species assumed): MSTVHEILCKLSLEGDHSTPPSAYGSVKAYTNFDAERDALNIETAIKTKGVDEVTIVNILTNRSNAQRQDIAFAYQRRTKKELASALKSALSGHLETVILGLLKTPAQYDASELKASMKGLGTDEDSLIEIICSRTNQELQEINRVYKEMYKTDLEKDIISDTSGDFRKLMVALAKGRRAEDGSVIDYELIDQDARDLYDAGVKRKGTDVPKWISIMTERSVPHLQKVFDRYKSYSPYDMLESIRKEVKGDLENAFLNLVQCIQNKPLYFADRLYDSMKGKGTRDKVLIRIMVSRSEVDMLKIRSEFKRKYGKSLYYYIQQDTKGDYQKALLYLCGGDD

CC1=C(CO)C(=O)OC([C@@H](C)C2CCC3C4C[C@H]5O[C@]56[C@@H](O)C=CC(=O)[C@]6(C)C4CC[C@@]32C)C1 (stereo partly drawn) [Withaferin A]
inhibition of tumor cell growth in vitro, CHP-100 [1]: inhibit tumor growth in Ewing's sarcoma
binding to annexin II (Annexin 2): binds stably and selectively to annexin II
astrocyte-dependent protection of neurons from oxidative stress (MAP-2) [2]: enhance the protection of neurons exposed to oxidative stress
reduction in cell death of motor neurons plated in the absence of BDNF ([3]; 200 nM (0.2 μM)): 50%
reduction in cell death of motor neurons plated in the absence of BDNF ([3]; 400 nM (0.4 μM)): 75%
neurite growth of motor neurons ([3]; FIG. 12D): induces the growth of neurites
